Measured values reported in paper PMC3192407, “Both Basic and Acidic Amino Acid Residues of IpTxa Are Involved in Triggering Substate of RyR1” (Journal of Biomedicine and Biotechnology, 2011).
Read-outs that look alike come from different tables or passages of the source. Bridge positions count the residues as written; N and C are the ends. Peptide text beside a SMILES is read from it.

What was measured:
[1] = target: rabbit skeletal ryanodine receptor (RyR1) (rabbit) (UniProt P11716)
RyR1 [2] = conditions: ref [16], [18]; cited from earlier work
Description: Imperatoxin A (IpTxa) from the African scorpion Pandinus imperator is a high-affinity modulator of skeletal RyR (RyR1). […] The inconsistency between occurrence of substate and ryanodine binding to RyR1 affected by K8A or T ...

RyR1 [3] = conditions: cited from earlier work
Description: Imperatoxin A (IpTxa) from the African scorpion Pandinus imperator is a high-affinity modulator of skeletal RyR (RyR1). […] Stretches of these positively charged residues tend to adopt different secondary structures such as α-helical structure for Peptide A and β-sheet structure for IpTxa and MCa. However, their orientation on the surface of the peptides could be similar. […] Two toxins induced different degree of substate of RyR1 at +40 mV holding potential (28% and 48% of full conductance state for IpTxa and MCa, resp.). […] Thus, the di ...

[4] = target: T1, rabbit skeletal RyR1 (native RyR1 in HSR) (Oryctolagus cuniculus, UniProt P11716); test: Planar lipid bilayer single-channel recording, native RyR1 in HSR; assay type: biochemical; conditions: for EC50: -30 mV
T1 construct: tested using native RyR1 in rabbit skeletal HSR; from tissue; host or cells: rabbit fast-twitch back and leg muscles (heavy SR vesicles)
Description: A heavy fraction of fragmented SR vesicles (HSR) containing junctional SR was prepared from rabbit fast-twitch back and leg muscles as described previously.
(§1) Single-channel recordings of rabbit skeletal RyR1 incorporated into planar lipid bilayers were carried out as described previously. Lipid bilayers, consisting of brain tissue phosphatidylethanolamine and phosphatidylserine (1 : 1) in decane (20 mg/mL) were formed across a hole of approximately 200 μm diameter. Thinning of the bilayer was monitored by bilayer capacitance. The basic composition of the cis/trans solution consisted of 300 mM cesium methanesulfonate, 10 mM Tris/Hepes (pH 7.2), 2 mM EGTA, and 1.998 mM CaCl2 ([Ca^2+]free = 10 μM). [Ca^2+]free was calculated using the “Chelator” program (Theo Schoenmaker). Cs^+ was selected as the charge carrier to ensure precise control of free [Ca^2+], to increase the channel conductance, and to avoid any contribution from potassium channels present in the SR membrane. Chloride channels were inhibited by using the impermeant anion methanesulfonate. Incorporation of ion channels was carried out as described by Miller and Racker and confirmed by recording the characteristically high single-channel conductance of RyRs. The trans side was maintained at ground and the cis side was clamped at −30 mV relative to the ground. After addition of the IpTxa to the cis chamber, the single channel data were collected at −30 mV for 2–5 min. […] Recordings were filtered with an 8-pole low-pass Bessel filter at 1 kHz and digitalized through a Digidata 1200 series interface (Axon Instruments). Data acquisition and analysis were done with the Axon Instruments software, pClamp v7.0.
(§2) Data were analyzed using the Hill equation described previously:
(§3) (1) Psubstate=(Psubstate, max )/[1+(EC50/[IpTxa])^nH] orPo=(Po, max )/[1+(EC50/[IpTxa])^nH], where (Po, max ) is the Po observed at saturating concentrations of IpTxa, EC50 is the IpTxa concentration for which 50% of Po, max is obtained and nH is the Hill coefficient. Also, Psubstate, max is the Psubstate observed at saturating concentrations of IpTxa, EC50 is the IpTxa concentration for which 50% of Psubstate, max is obtained, and nH is the Hill coefficient. The probability of full open state of the channel (Po) was defined as the ratio of the time spent in the open state to the total time exclusive of time spent in the substate. The probability to obtain substate (Psubstate) was calculated as the time spent in the substate divided by a given total recording time. The durations of the substate were obtained by manual positioning of the cursors and constructing all point histograms. Mean duration of substate was measured by total substate time divided by total substate frequencies.
(§4) Results are given as means ± SE. Significant differences were analyzed using Student's t-test. Differences were considered to be significant when P < 0.05. The fitting of the data to the graphs were carried out using the software, Origin v7.
To examine how IpTxa modifies RyR1 activity, RyR1 in HSR incorporated in planar lipid bilayers was tested in the presence or absence of synthetic wild-type IpTxa. The chamber solutions for both cis (cytosolic) and trans (luminal) sides included 300 mM cesium methanesulfonate and 10 mM Tris-Hepes (pH 7.2). 10 μM free Ca^2+ was added to the cis side to activate the incorporated RyR1. After an addition of IpTxa to the cis chamber, the single channel gating properties were recorded at a holding potential of −30 mV for over 2 min at each toxin concentration. […] To examine the effects of IpTxa on full open state, we calculated the probability to obtain the full open state (Po) as the time spent in the open state divided by the total time exclusive of the time spent in the substate. The time for recorded Po was in the range of 30 s–2 min. […] The steady-state Po was 0.18 ± 0.02 at 10 μM Ca^2+. […]

purified rabbit RyR1 = target: T2, purified rabbit RyR1 (Oryctolagus cuniculus, UniProt P11716); test: Planar lipid bilayer single-channel recording, purified RyR1; assay type: biochemical; conditions: for EC50: purified RyR1, toxin cis, 6-100 nM, -30 mV, 10 μM Ca^2+, Hill fit, means ± SE of 4–10 experiments, read-out: EC50 for Psubstate; for EC50 for Psubstate compared with wild type (in words): purified RyR1, 6-100 nM
T2 construct: we added IpTxa to purified RyR1 incorporated into planar lipid bilayers; from tissue; host or cells: rabbit skeletal muscle (inferred; purified from HSR)
Description: as §1, §2, §3, §4
To determine whether the activation of native RyR1 in SR by IpTxa was due to a direct activation of RyR1 or due to an indirect activation through other proteins associated to RyR1, we added IpTxa to purified RyR1 incorporated into planar lipid bilayers (Figure 3(a)). […] Purity of RyR1 at the final purification step was verified by Coomassie blue staining (Supplementary Figure 2).
Figure 3 Effects of IpTxa on purified rabbit RyR1 incorporated in planar lipid bilayers. (a) Single channel activity of purified RyR1 incorporated in planar lipid bilayers at 10 μM Ca^2+ with or without IpTxa (6–100 nM) was recorded. Single channel currents are shown as downward deflections from the closed level (indicated by c). The holding potential was −30 mV. (b) The plot of Po of purified RyR1 versus various concentrations of IpTxa is shown. (c) The plot of Psubstate of purified RyR1 versus various concentrations of IpTxa is shown. The results are shown as the means ± SE for 7 experiments. […]

[5] = native RyR1 in SR, toxin cis, 6-100 nM, [Ca^2+]free 10 μM, pH 7.2, Hill fit, means ± SE of 3–9 experiments, read-out: EC50 for Psubstate

T2 sequence (P11716 whole entry): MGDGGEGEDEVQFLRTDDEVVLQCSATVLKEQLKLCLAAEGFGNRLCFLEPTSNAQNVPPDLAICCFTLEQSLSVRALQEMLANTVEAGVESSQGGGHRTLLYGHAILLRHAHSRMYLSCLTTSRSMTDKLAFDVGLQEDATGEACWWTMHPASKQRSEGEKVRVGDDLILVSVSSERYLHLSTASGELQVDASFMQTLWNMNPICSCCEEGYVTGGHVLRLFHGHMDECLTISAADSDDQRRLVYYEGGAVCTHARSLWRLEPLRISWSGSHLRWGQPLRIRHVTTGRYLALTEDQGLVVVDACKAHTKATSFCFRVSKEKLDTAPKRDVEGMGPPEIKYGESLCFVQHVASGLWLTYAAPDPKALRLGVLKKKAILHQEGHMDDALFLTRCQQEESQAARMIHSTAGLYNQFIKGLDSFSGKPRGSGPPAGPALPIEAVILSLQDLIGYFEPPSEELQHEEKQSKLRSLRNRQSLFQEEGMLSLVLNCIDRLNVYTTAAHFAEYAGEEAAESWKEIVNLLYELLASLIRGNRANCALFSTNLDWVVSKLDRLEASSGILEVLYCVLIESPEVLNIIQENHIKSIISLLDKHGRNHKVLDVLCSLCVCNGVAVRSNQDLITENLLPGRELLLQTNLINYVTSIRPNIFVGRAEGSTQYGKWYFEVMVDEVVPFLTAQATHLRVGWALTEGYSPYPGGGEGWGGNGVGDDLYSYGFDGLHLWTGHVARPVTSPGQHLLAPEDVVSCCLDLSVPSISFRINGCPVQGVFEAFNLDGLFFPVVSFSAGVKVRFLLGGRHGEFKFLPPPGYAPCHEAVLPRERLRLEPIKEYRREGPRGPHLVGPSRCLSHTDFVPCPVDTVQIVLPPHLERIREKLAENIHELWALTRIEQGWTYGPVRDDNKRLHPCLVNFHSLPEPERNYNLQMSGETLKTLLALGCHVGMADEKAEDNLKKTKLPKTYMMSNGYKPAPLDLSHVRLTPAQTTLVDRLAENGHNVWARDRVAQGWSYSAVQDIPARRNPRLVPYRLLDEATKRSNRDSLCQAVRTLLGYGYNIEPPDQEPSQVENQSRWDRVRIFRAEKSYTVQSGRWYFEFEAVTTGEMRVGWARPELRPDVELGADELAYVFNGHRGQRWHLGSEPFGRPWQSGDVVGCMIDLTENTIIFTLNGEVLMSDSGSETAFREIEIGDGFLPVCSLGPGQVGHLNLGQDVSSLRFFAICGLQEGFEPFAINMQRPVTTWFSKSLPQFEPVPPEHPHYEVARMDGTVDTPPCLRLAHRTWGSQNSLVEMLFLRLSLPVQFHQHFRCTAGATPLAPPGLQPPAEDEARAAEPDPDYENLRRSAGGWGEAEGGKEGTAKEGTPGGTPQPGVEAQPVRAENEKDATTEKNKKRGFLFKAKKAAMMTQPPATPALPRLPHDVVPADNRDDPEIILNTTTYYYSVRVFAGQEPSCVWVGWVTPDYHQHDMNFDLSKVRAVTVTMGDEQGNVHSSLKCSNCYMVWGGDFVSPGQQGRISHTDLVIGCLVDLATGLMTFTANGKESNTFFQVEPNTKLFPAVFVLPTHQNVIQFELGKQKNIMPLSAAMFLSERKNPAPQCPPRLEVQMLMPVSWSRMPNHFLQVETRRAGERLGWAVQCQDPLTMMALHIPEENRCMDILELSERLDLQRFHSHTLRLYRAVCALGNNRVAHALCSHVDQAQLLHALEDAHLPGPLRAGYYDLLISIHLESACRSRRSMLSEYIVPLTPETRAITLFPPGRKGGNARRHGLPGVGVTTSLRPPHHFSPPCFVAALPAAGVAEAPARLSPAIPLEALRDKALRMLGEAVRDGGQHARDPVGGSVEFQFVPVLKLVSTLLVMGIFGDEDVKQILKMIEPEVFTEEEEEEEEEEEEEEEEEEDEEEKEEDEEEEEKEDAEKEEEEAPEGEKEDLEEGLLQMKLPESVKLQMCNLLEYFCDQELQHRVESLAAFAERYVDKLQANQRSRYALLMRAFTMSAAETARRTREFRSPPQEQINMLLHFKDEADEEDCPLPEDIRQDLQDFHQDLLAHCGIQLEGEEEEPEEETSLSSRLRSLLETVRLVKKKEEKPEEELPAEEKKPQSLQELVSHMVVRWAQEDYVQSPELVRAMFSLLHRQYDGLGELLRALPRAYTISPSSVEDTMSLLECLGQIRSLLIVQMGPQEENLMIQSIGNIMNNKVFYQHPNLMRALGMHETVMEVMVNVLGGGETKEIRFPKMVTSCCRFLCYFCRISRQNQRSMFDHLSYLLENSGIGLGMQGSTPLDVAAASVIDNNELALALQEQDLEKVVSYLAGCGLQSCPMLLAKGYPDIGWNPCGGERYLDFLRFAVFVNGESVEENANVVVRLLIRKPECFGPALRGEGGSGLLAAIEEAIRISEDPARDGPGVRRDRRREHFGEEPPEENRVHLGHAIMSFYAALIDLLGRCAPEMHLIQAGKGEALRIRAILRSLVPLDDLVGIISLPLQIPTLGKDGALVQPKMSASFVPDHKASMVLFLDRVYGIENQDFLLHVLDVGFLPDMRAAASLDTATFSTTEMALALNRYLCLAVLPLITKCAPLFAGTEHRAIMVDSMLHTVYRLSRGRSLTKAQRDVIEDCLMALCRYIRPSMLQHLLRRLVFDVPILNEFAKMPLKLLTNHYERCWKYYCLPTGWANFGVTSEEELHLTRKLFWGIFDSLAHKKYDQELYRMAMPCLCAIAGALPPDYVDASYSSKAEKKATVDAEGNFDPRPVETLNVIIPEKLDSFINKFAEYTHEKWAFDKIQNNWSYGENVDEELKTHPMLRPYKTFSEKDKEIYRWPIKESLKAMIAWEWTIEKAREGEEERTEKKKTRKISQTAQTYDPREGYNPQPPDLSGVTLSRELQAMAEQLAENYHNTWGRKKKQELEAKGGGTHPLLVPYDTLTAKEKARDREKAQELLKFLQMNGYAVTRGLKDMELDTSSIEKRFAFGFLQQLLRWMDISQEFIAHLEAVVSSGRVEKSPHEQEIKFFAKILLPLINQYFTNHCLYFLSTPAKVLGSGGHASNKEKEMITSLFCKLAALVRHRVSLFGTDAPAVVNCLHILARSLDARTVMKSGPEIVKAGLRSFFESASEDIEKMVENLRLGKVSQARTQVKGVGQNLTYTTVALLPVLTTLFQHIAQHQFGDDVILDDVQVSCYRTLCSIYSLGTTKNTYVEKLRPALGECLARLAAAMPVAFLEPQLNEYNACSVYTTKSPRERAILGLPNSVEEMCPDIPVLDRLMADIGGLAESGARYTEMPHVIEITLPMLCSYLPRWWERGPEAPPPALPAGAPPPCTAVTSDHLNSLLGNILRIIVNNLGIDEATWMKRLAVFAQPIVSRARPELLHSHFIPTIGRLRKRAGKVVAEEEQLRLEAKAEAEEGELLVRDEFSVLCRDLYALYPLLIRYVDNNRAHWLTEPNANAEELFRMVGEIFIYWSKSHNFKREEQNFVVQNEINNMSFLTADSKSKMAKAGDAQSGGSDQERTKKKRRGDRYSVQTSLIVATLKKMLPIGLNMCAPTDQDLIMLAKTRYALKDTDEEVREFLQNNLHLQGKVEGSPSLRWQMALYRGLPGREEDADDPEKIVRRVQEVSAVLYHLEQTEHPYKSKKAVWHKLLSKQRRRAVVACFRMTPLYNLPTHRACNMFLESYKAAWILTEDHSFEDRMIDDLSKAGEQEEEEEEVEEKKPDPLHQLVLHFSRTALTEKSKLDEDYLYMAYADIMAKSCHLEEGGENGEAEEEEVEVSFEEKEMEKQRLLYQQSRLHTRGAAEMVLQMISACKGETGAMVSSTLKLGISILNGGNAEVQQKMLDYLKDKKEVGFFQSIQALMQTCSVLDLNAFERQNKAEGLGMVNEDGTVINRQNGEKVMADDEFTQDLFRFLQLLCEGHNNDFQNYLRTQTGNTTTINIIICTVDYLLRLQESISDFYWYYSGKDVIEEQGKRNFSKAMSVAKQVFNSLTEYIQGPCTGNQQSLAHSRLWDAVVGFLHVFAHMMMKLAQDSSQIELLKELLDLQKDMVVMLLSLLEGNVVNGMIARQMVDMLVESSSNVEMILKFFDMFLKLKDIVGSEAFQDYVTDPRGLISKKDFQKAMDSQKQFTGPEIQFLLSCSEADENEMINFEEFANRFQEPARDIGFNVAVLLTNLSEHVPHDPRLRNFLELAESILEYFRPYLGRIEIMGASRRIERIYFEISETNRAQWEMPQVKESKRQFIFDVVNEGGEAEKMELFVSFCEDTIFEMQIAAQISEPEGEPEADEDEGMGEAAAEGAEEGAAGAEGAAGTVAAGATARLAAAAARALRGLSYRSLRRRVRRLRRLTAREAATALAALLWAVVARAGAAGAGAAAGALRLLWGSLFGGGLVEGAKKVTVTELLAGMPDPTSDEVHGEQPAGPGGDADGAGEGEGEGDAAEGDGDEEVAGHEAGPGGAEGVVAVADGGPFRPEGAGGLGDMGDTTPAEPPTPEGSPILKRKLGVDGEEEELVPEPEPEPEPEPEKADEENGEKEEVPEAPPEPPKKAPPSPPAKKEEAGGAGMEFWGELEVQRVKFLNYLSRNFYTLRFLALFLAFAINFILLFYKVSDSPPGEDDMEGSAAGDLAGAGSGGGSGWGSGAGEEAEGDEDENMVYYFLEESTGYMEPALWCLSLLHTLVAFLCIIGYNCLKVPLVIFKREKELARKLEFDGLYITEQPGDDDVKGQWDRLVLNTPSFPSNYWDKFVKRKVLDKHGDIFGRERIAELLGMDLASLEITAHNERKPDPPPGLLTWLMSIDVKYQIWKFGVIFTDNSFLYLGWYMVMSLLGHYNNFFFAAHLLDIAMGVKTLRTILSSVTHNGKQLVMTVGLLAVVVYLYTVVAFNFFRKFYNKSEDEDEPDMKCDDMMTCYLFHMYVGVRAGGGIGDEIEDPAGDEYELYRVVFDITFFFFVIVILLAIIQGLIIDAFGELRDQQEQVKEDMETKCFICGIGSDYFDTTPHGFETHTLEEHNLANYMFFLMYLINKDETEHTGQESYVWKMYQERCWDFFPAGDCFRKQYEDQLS
T1 sequence (P11716 whole entry): as above

| Molecule | mean duration of substate of native RyR1 in HSR at 30 nM toxin [1] | EC50 [4, 5] | EC50 (purified rabbit RyR1) | other results |
| --- | --- | --- | --- | --- |
| IpTxa R9A (from UniProt P59868 1-33) (peptide) | 5.86 s | – | – | – |
| maurocalcine [MCa] | – | – | – | [^3H]ryanodine binding (in words) (RyR1 [2]): strongly enhances [^3H]ryanodine binding to RyR1; substate current amplitude, % of full conductance state (RyR1 [3]; +40 mV holding potential, ref [10], [13]): 48%; substate current amplitude, % of full conductance (RyR1 [3]; long-lasting substate of RyR1, ref [16], [18]): 48%; modification of channel gating by MCa and peptide A together (in words) (RyR1 [3]; ref [16]): in an additive, but not competitive, manner |
| CC(C)C[C@@H]1NC(=O)[C@H](Cc2c[nH]cn2)NC(=O)[C@@H]2CCCN2C(=O)[C@H](CC(C)C)NC(=O)[C@@H](NC(=O)[C@H](CC(=O)O)NC(=O)CN)CSSC[C@@H]2NC(=O)[C@@H]3CSSC[C@@H](C(=O)N[C@@H](CCCNC(=N)N)C(=O)O)NC(=O)[C@H](CCCNC(=N)N)NC(=O)[C@H](CCCCN)NC(=O)[C@H](CCC(=O)O)NC(=O)[C@H](C)NC(=O)[C@H](CC(N)=O)NC(=O)[C@H]([C@@H](C)O)NC(=O)CNC(=O)[C@H](CCCNC(=N)N)NC(=O)[C@H](CCCNC(=N)N)NC(=O)[C@H](CCCCN)NC(=O)[C@H](CSSC[C@H](NC(=O)[C@H](CCCNC(=N)N)NC(=O)[C@H](CCCCN)NC1=O)C(=O)N[C@@H](CCCCN)C(=O)N[C@@H](C)C(=O)N[C@@H](CC(=O)O)C(=O)N[C@@H](CC(N)=O)C(=O)N[C@@H](CC(=O)O)C(=O)N3)NC(=O)[C@H](CCCCN)NC(=O)[C@H](CCCCN)NC(=O)CNC2=O [Wild type, Imperatoxin A] (H-GDCLPHLKRCKADNDCCGKKCKRRGTNAEKRCR-OH; disulfide 3-17, 10-21, 16-32) | – | 23.3 ± 2.37 nM | 17.1 ± 2.31 nM | EC50 ([4]; native RyR1, toxin cis, 10 μM Ca^2+, Hill fit, means ± SE of ten experiments, read-out: EC50 for Po): 17.4 ± 4.67 nM |
| CC(C)C[C@@H]1NC(=O)[C@H](Cc2c[nH]cn2)NC(=O)[C@@H]2CCCN2C(=O)[C@H](CC(C)C)NC(=O)[C@@H](NC(=O)[C@H](CC(=O)O)NC(=O)CN)CSSC[C@@H]2NC(=O)[C@@H]3CSSC[C@@H](C(=O)N[C@@H](CCCNC(=N)N)C(=O)O)NC(=O)[C@H](CCCNC(=N)N)NC(=O)[C@H](CCCCN)NC(=O)[C@H](CCC(=O)O)NC(=O)[C@H](C)NC(=O)[C@H](CC(N)=O)NC(=O)[C@H]([C@@H](C)O)NC(=O)CNC(=O)[C@H](CCCNC(=N)N)NC(=O)[C@H](CCCNC(=N)N)NC(=O)[C@H](CCCCN)NC(=O)[C@H](CSSC[C@H](NC(=O)[C@H](CCCNC(=N)N)NC(=O)[C@H](C)NC1=O)C(=O)N[C@@H](CCCCN)C(=O)N[C@@H](C)C(=O)N[C@@H](CC(=O)O)C(=O)N[C@@H](CC(N)=O)C(=O)N[C@@H](CC(=O)O)C(=O)N3)NC(=O)[C@H](CCCCN)NC(=O)[C@H](CCCCN)NC(=O)CNC2=O [K8A] (H-GDCLPHLARCKADNDCCGKKCKRRGTNAEKRCR-OH; disulfide 3-17, 10-21, 16-32) | – | 5.7 ± 2.86 nM | 5.29 ± 4.84 nM | EC50 of Psubstate compared with wild type (in words) ([4]; native RyR1 (Figure 2(b)), Figure 5(b), purified RyR1, also cited in sentence): dramatically decreased EC50 of Psubstate |
| Imperatoxin A (IpTxa), synthetic wild type (from UniProt P59868 1-33) (peptide) | 4.56 s | – | – | – |
| CC(C)C[C@@H]1NC(=O)[C@H](Cc2c[nH]cn2)NC(=O)[C@@H]2CCCN2C(=O)[C@H](CC(C)C)NC(=O)[C@@H](NC(=O)[C@H](CC(=O)O)NC(=O)CN)CSSC[C@@H]2NC(=O)[C@@H]3CSSC[C@@H](C(=O)N[C@@H](C)C(=O)O)NC(=O)[C@H](CCCNC(=N)N)NC(=O)[C@H](CCCCN)NC(=O)[C@H](CCC(=O)O)NC(=O)[C@H](C)NC(=O)[C@H](CC(N)=O)NC(=O)[C@H]([C@@H](C)O)NC(=O)CNC(=O)[C@H](CCCNC(=N)N)NC(=O)[C@H](CCCNC(=N)N)NC(=O)[C@H](CCCCN)NC(=O)[C@H](CSSC[C@H](NC(=O)[C@H](CCCNC(=N)N)NC(=O)[C@H](CCCCN)NC1=O)C(=O)N[C@@H](CCCCN)C(=O)N[C@@H](C)C(=O)N[C@@H](CC(=O)O)C(=O)N[C@@H](CC(N)=O)C(=O)N[C@@H](CC(=O)O)C(=O)N3)NC(=O)[C@H](CCCCN)NC(=O)[C@H](CCCCN)NC(=O)CNC2=O [R33A] (H-GDCLPHLKRCKADNDCCGKKCKRRGTNAEKRCA-OH; disulfide 3-17, 10-21, 16-32) | – | 16 ± 5.65 nM | 19.3 ± 1.05 nM | EC50 for Psubstate compared with wild type (in words) (purified rabbit RyR1): without a significant change of EC50 |
| IpTxa D2A (from UniProt P59868 1-33) (peptide) | 2.96 s | – | – | – |
| CC(C)C[C@@H]1NC(=O)[C@H](Cc2c[nH]cn2)NC(=O)[C@@H]2CCCN2C(=O)[C@H](CC(C)C)NC(=O)[C@@H](NC(=O)[C@H](CC(=O)O)NC(=O)CN)CSSC[C@@H]2NC(=O)[C@@H]3CSSC[C@@H](C(=O)N[C@@H](CCCNC(=N)N)C(=O)O)NC(=O)[C@H](C)NC(=O)[C@H](CCCCN)NC(=O)[C@H](CCC(=O)O)NC(=O)[C@H](C)NC(=O)[C@H](CC(N)=O)NC(=O)[C@H]([C@@H](C)O)NC(=O)CNC(=O)[C@H](CCCNC(=N)N)NC(=O)[C@H](CCCNC(=N)N)NC(=O)[C@H](CCCCN)NC(=O)[C@H](CSSC[C@H](NC(=O)[C@H](CCCNC(=N)N)NC(=O)[C@H](CCCCN)NC1=O)C(=O)N[C@@H](CCCCN)C(=O)N[C@@H](C)C(=O)N[C@@H](CC(=O)O)C(=O)N[C@@H](CC(N)=O)C(=O)N[C@@H](CC(=O)O)C(=O)N3)NC(=O)[C@H](CCCCN)NC(=O)[C@H](CCCCN)NC(=O)CNC2=O [R31A] (H-GDCLPHLKRCKADNDCCGKKCKRRGTNAEKACR-OH; disulfide 3-17, 10-21, 16-32) | – | 19.2 ± 4.65 nM | 18.2 ± 1.65 nM | EC50 for Psubstate compared with wild type (in words) (purified rabbit RyR1): without a significant change of EC50 |
